Molecular target: T1, recombinant human SAE enzyme (Homo sapiens, UniProt Q9UBT2)
T1 sequence (Q9UBT2 1-640): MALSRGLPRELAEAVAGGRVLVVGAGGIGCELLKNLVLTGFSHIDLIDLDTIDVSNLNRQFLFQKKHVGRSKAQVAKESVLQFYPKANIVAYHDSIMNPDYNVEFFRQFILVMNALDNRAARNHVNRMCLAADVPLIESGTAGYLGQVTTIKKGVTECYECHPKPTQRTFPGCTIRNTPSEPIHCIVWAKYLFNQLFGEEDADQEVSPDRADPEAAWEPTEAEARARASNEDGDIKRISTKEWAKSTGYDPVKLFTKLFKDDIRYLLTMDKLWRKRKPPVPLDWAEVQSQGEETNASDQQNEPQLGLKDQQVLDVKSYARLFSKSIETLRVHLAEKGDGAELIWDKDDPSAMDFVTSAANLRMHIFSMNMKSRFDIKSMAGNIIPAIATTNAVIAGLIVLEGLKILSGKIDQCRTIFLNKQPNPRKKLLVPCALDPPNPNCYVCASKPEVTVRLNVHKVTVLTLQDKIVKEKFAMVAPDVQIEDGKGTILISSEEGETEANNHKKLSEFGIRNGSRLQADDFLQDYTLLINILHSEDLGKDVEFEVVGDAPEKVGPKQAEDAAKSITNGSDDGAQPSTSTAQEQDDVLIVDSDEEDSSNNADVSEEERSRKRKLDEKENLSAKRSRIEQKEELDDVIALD
T1 sequence (Q9UBE0 1-346 partner): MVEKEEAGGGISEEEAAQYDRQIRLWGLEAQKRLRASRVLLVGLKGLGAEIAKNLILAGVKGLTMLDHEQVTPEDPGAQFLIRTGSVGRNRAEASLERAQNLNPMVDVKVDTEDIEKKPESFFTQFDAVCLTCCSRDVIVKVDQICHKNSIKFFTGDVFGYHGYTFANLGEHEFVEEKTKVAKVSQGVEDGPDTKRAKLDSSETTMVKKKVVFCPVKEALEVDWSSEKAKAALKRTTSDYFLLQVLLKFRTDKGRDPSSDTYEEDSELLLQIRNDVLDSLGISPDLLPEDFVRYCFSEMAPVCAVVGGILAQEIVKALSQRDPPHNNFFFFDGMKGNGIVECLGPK
Experiment: SAE HTRF Enzyme Assay
Assay type: biochemical
Settings: for IC50: class symbols A-C; for inhibition at 0.111 µM: compound concentration 0.111 μM, read-out: Percent Inhibition
Method in brief: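 SAE 0.11 nM; ATP 0.5 μM; Sumo-Flag 0.125 μM; Ubc9-GST 0.01 μM; 250 μM GSH, 5 mM MgCl2, pH 7.5. 105 min, 24° C. EDTA/KF stop plus Eu/APC antibodies, 2 h, TR-FRET. % inhibition or IC50.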

Structure (SMILES): Cc1cc(C(=O)c2cncnc2N[C@@H]2C[C@@H](COS(N)(=O)=O)[C@@H](O)C2)nn1Cc1cccc(Br)c1 [Compound I-6, {(1S,2S,4R)-4-[(5-{[1-(3-bromobenzyl)-5-methyl-1H-pyrazol-3-yl]carbonyl}pyrimidin-4-yl)amino]-2-hydroxycyclopentyl}methyl sulfamate]
- IC50: < 10 nM
- inhibition at 0.111 µM: 99%

Structure (SMILES): NS(=O)(=O)OC[C@H]1C[C@@H](Nc2ncncc2C(=O)c2ccn(Cc3cccc(C(F)(F)F)c3)c2)[C@@H](F)[C@@H]1O [Compound I-7, [(1R,2R,3R,4R)-3-fluoro-2-hydroxy-4-{[5-({1-[3-(trifluoromethyl)benzyl]-lH-pyrrol-3-yl}carbonyl)pyrimidin-4-yl]amino}cyclopentyl]methyl sulfamate]
- IC50: < 10 nM
- inhibition at 0.111 µM: 99%

Structure (SMILES): NS(=O)(=O)OC[C@H]1C[C@@H](Nc2ncncc2C(=O)c2ccn(Cc3cccc(Cl)n3)c2)[C@@H](F)[C@@H]1O [Compound I-8, [(1R,2R,3R,4R)-4-{[5-({1-[(6-Chloropyridin-2-yl)methyl]-1H-pyrrol-3-yl}carbonyl)pyrimidin-4-yl]amino}-3-fluoro-2-hydroxycyclopentyl]methyl sulfamate]
- IC50: < 10 nM
- inhibition at 0.111 µM: 99%

Structure (SMILES): NS(=O)(=O)OC[C@H]1C[C@@H](Nc2ncncc2C(=O)c2ccn(Cc3cccc(Br)c3)n2)C[C@@H]1O [Compound I-11, {(1R,2S,4R)-4-[(5-{[1-(3-bromobenzyl)-1H-pyrazol-3-yl]carbonyl}pyrimidin-4-yl)amino]-2-hydroxycyclopentyl}methyl sulfamate]
- inhibition at 0.111 µM: 100%

Structure (SMILES): NS(=O)(=O)OC[C@H]1C[C@@H](Nc2ncncc2C(=O)c2ccn(CC#CCC3CCOCC3)n2)C[C@@H]1O [Compound I-12, [(1R,2S,4R)-2-hydroxy-4-{[5-({1-[4-(tetrahydro-2H-pyran-4-yl)but-2-yn-1-yl]-1H-pyrazol-3-yl}carbonyl)pyrimidin-4-yl]amino}cyclopentyl]methyl sulfamate]
- IC50: 100 to 1000 nM
- inhibition at 0.111 µM: 39%

Structure (SMILES): NS(=O)(=O)OC[C@H]1C[C@@H](Nc2ncncc2C(=O)c2ccn(Cc3cccc(I)c3)c2)[C@@H](F)[C@@H]1O [Compound I-13, {(1R,2R,3R,4R)-3-fluoro-2-hydroxy-4-[(5-{[1-(3-iodobenzyl)-1H-pyrrol-3-yl]carbonyl}pyrimidin-4-yl)amino]cyclopentyl}methyl sulfamate]
- IC50: < 10 nM
- inhibition at 0.111 µM: 100%

Structure (SMILES): Cc1cc(Cn2ccc(C(=O)c3cncnc3N[C@@H]3C[C@H](COS(N)(=O)=O)[C@@H](O)C3)n2)ccc1F [Compound I-14, {(1R,2S,4R)-4-[(5-{[1-(4-fluoro-3-methylbenzyl)-1H-pyrazol-3-yl]carbonyl}pyrimidin-4-yl)amino]-2-hydroxycyclopentyl}methyl sulfamate]
- IC50: < 10 nM
- inhibition at 0.111 µM: 98%

Structure (SMILES): NS(=O)(=O)OC[C@H]1C[C@@H](Nc2ncncc2C(=O)c2ccn(Cc3cccc(Br)c3)n2)[C@@H](F)[C@@H]1O [Compound I-15, {(1R,2R,3R,4R)-4-[(5-{[1-(3-bromobenzyl)-1H-pyrazol-3-yl]carbonyl}pyrimidin-4-yl)amino]-3-fluoro-2-hydroxycyclopentyl}methyl sulfamate]
- IC50: < 10 nM
- inhibition at 0.111 µM: 98%

Structure (SMILES): NS(=O)(=O)OC[C@H]1C[C@@H](Nc2ncncc2C(=O)c2ccn(Cc3c(F)ccc(F)c3F)n2)C[C@@H]1O [Compound I-16, {(1R,2S,4R)-2-hydroxy-4-[(5-{[1-(2,3,6-trifluorobenzyl)-1H-pyrazol-3-yl]carbonyl}pyrimidin-4-yl)amino]cyclopentyl}methyl sulfamate]
- IC50: < 10 nM
- inhibition at 0.111 µM: 98%

Structure (SMILES): NS(=O)(=O)OC[C@H]1C[C@@H](Nc2ncncc2C(=O)c2ccn(Cc3cc4ccccc4o3)n2)C[C@@H]1O [Compound I-17, {(1R,2S,4R)-4-[(5-{[1-(1-benzofuran-2-ylmethyl)-1H-pyrazol-3-yl]carbonyl}pyrimidin-4-yl)amino]-2-hydroxycyclopentyl}methyl sulfamate]
- IC50: < 10 nM
- inhibition at 0.111 µM: 99%

Structure (SMILES): NS(=O)(=O)OC[C@H]1C[C@@H](Nc2ccncc2C(=O)c2ccn(Cc3cccc(OC(F)(F)F)c3)n2)C[C@@H]1O [Compound I-18, [(1R,2S,4R)-2-hydroxy-4-{[3({1-[3-(trifluoromethoxy)benzyl]-1H-pyrazol-3-yl}carbonyl)pyridin-4-yl]amino}cyclopentyl]methyl sulfamate]
- IC50: < 10 nM
- inhibition at 0.111 µM: 96%

Structure (SMILES): NS(=O)(=O)OC[C@H]1C[C@@H](Nc2ncncc2C(=O)c2ccn(CC(=O)N3CCCC3)n2)[C@@H](F)[C@@H]1O [Compound I-19, [(1R,2R,3R,4R)-3-Fluoro-2-hydroxy-4-{[5-({1-[2-oxo-2-(pyrrolidin-1-yl)ethyl]-1H-pyrazol-3-yl}carbonyl)pyrimidin-4-yl]amino}cyclopentyl]methyl sulfamate]
- IC50: 100 to 1000 nM
- inhibition at 0.111 µM: 20%

Structure (SMILES): NS(=O)(=O)OC[C@H]1C[C@@H](Nc2ncncc2C(=O)c2ccn(Cc3cccc(OC(F)(F)F)c3)n2)C[C@@H]1O [Compound I-20, [(1R,2S,4R)-2-hydroxy-4-{[5-({1-[3-(trifluoromethoxy)benzyl]-1H-pyrazol-3-yl}carbonyl)pyrimidin-4-yl]amino}cyclopentyl]methyl sulfamate]
- IC50: < 10 nM
- inhibition at 0.111 µM: 96%

Structure (SMILES): NS(=O)(=O)OC[C@H]1C[C@@H](Nc2ncncc2C(=O)c2ccn(Cc3ccc(F)c(C(F)(F)F)c3)c2)C[C@@H]1O [Compound I-21, [(1R,2S,4R)-4-{[5-({1-[4-fluoro-3-(trifluoromethyl)benzyl]-1H-pyrrol-3-yl}carbonyl)pyrimidin-4-yl]amino}-2-hydroxycyclopentyl]methyl sulfamate]
- IC50: < 10 nM
- inhibition at 0.111 µM: 99%

Structure (SMILES): Cc1cccc(Cn2ccc(C(=O)c3cncnc3N[C@@H]3C[C@H](COS(N)(=O)=O)[C@@H](O)C3)n2)c1F [Compound I-22, {(1R,2S,4R)-4-[(5-{[1-(2-fluoro-3-methylbenzyl)-1H-pyrazol-3-yl]carbonyl}pyrimidin-4-yl)amino]-2-hydroxycyclopentyl}methyl sulfamate]
- IC50: < 10 nM
- inhibition at 0.111 µM: 100%

Structure (SMILES): NS(=O)(=O)OC[C@H]1C[C@@H](Nc2ncncc2C(=O)c2ccn(Cc3cccc(OC(F)(F)F)c3)n2)[C@@H](F)[C@@H]1O [Compound I-23, [(1R,2R,3R,4R)-3-Fluoro-2-hydroxy-4-{[5-({1-[3-(trifluoromethoxy)benzyl]-1H-pyrazol-3-yl}carbonyl)pyrimidin-4-yl]amino}cyclopentyl]methyl sulfamate]
- IC50: < 10 nM
- inhibition at 0.111 µM: 98%

Structure (SMILES): NS(=O)(=O)OC[C@H]1C[C@@H](Nc2ncncc2C(=O)c2ccn(Cc3ccc(Br)o3)c2)[C@@H](F)[C@@H]1O [Compound I-24, [(1R,2R,3R,4R)-4-{[5-({1-[(5-Bromo-2-furyl)methyl]-1H-pyrrol-3-yl}carbonyl)pyrimidin-4-yl]amino}-3-fluoro-2-hydroxycyclopentyl]methyl sulfamate]
- IC50: < 10 nM
- inhibition at 0.111 µM: 100%

Structure (SMILES): N#Cc1cccc(Cn2ccc(C(=O)c3cncnc3N[C@@H]3C[C@H](COS(N)(=O)=O)[C@@H](O)[C@H]3O)n2)c1 [Compound I-25, {(1R,2R,3S,4R)-4-[(5-{[1-(3-cyanobenzyl)-1H-pyrazol-3-yl]carbonyl}pyrimidin-4-yl)amino]-2,3-dihydroxycyclopentyl}methyl sulfamate]
- IC50: < 10 nM
- inhibition at 0.111 µM: 93%

Reference: patent publication US9695154B2, “Heteroaryl inhibitors of sumo activating enzyme” (MILLENNIUM PHARMACEUTICALS, INC., priority 2013, dated 2017)
